Source: US7074789B2, “Kinase inhibitors” (Amgen Inc., priority 1999, dated 2006)

Columns and labels:
Format in all cases: biochemical
Lck = target: T1, Lck (Homo sapiens, UniProt P06239); assay: Kinase inhibition assay (33P transfer), Lck; settings: Table 3, class symbols; read-out: Lck-1
T1 construct: Kinases are expressed as either kinase domains or full length constructs; made in house
Summary of the method: (§1)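 Recombinant kinase-domain or full-length fusion proteins (GST or His tag) served as enzyme. Substrate poly(Glu,Tyr) 4:1 or poly(Arg,Ser) 3:1 was bound to the plate; transferred 33P was read by liquid scintillation following acid washing.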

PDGFRB = target: T2, PDGFRB (Homo sapiens, UniProt P09619); assay: Kinase inhibition assay (33P transfer), PDGFRB; settings: read-out: PDGFRB-1
T2 construct: Kinases are expressed as either kinase domains or full length constructs; made in house
T2 sequence (P09619 33-1106, species assumed): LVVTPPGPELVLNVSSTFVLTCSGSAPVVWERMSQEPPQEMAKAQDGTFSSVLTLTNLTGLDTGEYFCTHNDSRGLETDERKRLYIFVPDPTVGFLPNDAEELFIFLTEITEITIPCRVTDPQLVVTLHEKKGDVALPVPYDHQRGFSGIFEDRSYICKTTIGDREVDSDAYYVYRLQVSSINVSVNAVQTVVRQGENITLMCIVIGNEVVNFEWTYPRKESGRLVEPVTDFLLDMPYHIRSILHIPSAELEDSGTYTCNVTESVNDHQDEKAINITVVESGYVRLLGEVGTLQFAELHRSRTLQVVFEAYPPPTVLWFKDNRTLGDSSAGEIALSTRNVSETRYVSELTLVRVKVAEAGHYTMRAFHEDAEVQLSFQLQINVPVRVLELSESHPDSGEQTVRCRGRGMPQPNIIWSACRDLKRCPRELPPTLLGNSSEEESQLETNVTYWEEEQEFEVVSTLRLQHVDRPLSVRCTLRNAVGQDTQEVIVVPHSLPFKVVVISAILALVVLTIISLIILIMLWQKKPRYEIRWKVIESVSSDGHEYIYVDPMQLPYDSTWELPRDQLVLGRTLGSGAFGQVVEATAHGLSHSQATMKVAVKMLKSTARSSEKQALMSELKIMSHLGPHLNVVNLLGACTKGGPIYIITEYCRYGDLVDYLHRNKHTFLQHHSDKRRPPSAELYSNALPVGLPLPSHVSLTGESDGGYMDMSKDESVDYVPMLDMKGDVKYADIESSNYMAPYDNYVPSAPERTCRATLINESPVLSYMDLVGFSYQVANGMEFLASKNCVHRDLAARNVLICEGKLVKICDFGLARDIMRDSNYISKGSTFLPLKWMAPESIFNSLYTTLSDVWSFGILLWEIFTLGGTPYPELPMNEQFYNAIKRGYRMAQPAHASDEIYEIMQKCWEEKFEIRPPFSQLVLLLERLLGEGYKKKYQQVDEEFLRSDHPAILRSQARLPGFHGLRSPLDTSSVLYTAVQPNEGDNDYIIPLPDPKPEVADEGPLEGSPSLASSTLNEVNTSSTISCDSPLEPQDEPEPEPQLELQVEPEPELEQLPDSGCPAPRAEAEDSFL

Itk = target: T3, Itk (Homo sapiens, UniProt Q08881); assay: Kinase inhibition assay (33P transfer), Itk; settings: Table 3, class symbols; read-out: Itk-1
T3 construct: Kinases are expressed as either kinase domains or full length constructs; made in house
T3 sequence (Q08881 1-620): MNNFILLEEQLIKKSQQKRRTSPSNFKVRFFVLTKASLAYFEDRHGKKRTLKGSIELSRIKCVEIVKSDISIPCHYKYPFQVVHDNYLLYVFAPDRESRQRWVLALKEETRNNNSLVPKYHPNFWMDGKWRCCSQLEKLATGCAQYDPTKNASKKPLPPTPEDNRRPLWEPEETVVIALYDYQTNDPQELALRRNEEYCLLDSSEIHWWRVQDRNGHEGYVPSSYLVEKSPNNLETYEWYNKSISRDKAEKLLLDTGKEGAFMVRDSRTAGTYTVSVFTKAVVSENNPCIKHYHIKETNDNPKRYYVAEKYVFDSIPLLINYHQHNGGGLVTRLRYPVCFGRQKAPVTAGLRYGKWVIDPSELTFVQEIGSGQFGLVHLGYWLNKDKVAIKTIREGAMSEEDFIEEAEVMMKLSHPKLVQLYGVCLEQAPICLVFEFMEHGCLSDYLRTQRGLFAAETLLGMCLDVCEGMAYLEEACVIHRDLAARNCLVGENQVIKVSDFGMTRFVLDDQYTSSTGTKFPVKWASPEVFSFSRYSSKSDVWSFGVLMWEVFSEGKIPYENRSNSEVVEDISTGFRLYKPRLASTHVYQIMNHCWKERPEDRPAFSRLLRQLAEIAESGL
Summary of the method: (§2)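 Read-out: scintillation counts of 33P moved from ATP onto synthetic peptide polymer coated on the well surface, after washing with 0.5% phosphoric acid. Enzymes were tagged (GST or polyHistidine) and came from bacterial or insect-cell expression. IC50 marks 50% loss of incorporated label.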

IGFR-1 = target: T4, IGFR-1 (Homo sapiens, UniProt P08069); assay: Kinase inhibition assay (33P transfer), IGFR-1; settings: Table 2, class symbols A-E
T4 construct: Kinases are expressed as either kinase domains or full length constructs; made in house
T4 sequence (P08069 31-1367): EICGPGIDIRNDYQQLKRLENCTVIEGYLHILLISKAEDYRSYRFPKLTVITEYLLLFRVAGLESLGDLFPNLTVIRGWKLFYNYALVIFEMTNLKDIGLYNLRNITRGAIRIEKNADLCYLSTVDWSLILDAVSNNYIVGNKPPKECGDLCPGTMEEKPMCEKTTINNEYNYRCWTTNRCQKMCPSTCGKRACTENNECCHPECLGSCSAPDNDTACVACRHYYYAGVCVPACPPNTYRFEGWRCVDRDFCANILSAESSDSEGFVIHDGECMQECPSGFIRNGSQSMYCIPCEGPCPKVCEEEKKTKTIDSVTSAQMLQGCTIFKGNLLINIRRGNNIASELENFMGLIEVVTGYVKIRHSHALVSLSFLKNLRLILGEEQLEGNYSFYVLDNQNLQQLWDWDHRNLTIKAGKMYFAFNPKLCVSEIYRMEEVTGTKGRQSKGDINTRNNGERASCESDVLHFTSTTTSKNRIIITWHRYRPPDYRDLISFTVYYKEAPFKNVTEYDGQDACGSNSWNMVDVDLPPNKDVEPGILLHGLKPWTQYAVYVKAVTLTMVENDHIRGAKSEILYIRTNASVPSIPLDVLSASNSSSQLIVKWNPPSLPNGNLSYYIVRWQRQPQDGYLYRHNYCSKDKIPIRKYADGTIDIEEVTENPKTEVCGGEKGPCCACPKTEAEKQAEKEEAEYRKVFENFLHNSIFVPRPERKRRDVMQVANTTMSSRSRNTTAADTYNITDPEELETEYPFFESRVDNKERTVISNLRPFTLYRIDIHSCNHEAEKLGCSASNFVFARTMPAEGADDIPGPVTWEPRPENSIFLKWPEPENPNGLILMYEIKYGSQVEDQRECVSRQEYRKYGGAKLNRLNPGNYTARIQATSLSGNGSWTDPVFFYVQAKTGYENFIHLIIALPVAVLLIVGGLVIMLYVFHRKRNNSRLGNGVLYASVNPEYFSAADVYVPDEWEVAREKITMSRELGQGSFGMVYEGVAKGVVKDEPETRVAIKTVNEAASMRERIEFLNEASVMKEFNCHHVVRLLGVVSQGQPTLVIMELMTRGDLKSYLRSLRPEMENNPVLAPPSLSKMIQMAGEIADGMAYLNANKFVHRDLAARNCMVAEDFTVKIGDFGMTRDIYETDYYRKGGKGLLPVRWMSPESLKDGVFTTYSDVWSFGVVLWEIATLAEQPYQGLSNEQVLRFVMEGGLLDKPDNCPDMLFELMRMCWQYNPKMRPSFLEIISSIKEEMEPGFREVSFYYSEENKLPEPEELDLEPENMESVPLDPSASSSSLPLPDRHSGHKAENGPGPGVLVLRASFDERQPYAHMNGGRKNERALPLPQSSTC

ErbB2 = target: T5, ErbB2 (Homo sapiens, UniProt P04626); assay: Kinase inhibition assay (33P transfer), ErbB2; settings: read-out: ErbB2-2
T5 construct: Kinases are expressed as either kinase domains or full length constructs; made in house
Summary of the method: as §2

Zap-70 = target: T6, Zap-70 (Homo sapiens, UniProt P43403); assay: Kinase inhibition assay (33P transfer), Zap-70; settings: Table 3, class symbols; read-out: Zap-1
T6 construct: Kinases are expressed as either kinase domains or full length constructs; made in house
T6 sequence (P43403 1-619): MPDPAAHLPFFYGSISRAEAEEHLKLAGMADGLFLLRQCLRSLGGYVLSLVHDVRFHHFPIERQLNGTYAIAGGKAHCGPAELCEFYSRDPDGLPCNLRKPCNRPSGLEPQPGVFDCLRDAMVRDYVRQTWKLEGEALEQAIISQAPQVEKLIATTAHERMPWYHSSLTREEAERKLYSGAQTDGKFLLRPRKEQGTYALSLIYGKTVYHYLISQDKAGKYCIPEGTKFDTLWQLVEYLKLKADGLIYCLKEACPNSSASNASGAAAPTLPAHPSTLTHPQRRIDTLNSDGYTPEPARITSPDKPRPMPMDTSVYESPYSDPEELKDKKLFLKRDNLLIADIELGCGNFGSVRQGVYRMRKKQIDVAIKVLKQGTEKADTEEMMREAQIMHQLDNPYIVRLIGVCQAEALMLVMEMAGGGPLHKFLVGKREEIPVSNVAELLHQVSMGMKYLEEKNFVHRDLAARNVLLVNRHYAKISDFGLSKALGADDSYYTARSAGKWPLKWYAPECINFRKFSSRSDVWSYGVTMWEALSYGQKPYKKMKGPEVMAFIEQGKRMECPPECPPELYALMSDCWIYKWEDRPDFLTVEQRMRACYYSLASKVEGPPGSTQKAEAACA
Summary of the method: as §1

AKT = target: T7, AKT (Homo sapiens, UniProt Q9Y243); assay: Kinase inhibition assay (33P transfer), AKT; settings: Table 2, class symbols A-E; read-out: AKT3-1
T7 construct: Kinases are expressed as either kinase domains or full length constructs; made in house
T7 sequence (Q9Y243 whole entry, the tested form may be a part): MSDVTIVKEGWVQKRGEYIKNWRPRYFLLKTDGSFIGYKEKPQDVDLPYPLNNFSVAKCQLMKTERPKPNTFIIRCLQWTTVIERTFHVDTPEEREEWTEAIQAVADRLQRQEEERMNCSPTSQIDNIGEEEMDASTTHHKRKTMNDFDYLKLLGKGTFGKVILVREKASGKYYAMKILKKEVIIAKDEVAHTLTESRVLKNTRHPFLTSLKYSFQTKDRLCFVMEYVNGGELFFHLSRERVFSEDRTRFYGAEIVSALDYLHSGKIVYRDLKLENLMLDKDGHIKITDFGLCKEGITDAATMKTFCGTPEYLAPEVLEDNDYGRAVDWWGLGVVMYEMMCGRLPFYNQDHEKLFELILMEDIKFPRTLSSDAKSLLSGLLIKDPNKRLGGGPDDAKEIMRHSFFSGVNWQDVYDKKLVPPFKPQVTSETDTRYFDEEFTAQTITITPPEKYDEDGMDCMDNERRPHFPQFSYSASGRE
Summary of the method: as §1

Kdr = target: T8, Kdr (Homo sapiens, UniProt P35968); assay: Kinase inhibition assay (33P transfer), Kdr; settings: Table 3, class symbols; read-out: KDR-1
T8 construct: Kinases are expressed as either kinase domains or full length constructs; made in house
Summary of the method: as §1

EGFR = target: T9, EGFR (Homo sapiens, UniProt P00533); assay: Kinase inhibition assay (33P transfer), EGFR; settings: Table 2, class symbols A-E; read-out: EGFR-1
T9 construct: Kinases are expressed as either kinase domains or full length constructs; made in house
Summary of the method: as §2

c-Met = target: T10, c-Met (Homo sapiens, UniProt P08581); assay: Kinase inhibition assay (33P transfer), c-Met; settings: Table 2, class symbols A-E; read-out: Met-1
T10 construct: Kinases are expressed as either kinase domains or full length constructs; made in house
T10 sequence (P08581 25-1390): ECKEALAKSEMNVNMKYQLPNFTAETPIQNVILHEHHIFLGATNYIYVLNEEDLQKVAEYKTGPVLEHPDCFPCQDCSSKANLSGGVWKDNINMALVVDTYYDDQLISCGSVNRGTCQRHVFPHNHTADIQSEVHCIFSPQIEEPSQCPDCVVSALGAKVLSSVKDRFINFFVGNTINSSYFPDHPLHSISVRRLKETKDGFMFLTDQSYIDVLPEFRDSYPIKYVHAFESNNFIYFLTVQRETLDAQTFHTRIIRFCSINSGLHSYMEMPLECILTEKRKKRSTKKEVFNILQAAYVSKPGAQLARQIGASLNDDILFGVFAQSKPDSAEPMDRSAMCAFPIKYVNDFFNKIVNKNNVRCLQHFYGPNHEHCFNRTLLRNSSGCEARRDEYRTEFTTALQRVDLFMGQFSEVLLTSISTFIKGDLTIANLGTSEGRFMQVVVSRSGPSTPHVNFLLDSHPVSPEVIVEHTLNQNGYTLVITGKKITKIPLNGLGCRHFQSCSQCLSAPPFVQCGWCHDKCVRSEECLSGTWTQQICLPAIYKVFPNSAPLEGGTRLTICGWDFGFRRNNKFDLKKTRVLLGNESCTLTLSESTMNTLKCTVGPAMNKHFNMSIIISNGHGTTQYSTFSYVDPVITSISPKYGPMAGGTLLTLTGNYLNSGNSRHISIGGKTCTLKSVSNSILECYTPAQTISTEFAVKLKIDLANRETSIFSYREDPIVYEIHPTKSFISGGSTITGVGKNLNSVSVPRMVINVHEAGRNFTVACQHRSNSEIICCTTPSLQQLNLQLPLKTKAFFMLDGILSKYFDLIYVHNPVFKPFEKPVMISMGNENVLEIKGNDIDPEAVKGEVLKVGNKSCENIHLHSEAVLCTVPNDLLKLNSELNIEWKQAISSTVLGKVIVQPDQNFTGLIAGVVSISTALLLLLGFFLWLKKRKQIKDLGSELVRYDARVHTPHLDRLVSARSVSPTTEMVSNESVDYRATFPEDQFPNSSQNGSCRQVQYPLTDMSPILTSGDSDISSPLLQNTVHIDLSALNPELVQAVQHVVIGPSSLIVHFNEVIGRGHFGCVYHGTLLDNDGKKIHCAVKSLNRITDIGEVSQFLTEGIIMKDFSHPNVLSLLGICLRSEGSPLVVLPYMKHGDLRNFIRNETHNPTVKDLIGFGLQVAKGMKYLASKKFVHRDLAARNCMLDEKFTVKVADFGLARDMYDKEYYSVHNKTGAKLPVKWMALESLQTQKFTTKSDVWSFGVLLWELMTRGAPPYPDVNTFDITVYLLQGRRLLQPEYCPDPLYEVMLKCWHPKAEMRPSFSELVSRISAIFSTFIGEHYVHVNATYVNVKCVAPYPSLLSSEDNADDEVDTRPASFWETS
Summary of the method: as §2

T1 sequence (P06239 whole entry, species assumed, the tested form may be a part): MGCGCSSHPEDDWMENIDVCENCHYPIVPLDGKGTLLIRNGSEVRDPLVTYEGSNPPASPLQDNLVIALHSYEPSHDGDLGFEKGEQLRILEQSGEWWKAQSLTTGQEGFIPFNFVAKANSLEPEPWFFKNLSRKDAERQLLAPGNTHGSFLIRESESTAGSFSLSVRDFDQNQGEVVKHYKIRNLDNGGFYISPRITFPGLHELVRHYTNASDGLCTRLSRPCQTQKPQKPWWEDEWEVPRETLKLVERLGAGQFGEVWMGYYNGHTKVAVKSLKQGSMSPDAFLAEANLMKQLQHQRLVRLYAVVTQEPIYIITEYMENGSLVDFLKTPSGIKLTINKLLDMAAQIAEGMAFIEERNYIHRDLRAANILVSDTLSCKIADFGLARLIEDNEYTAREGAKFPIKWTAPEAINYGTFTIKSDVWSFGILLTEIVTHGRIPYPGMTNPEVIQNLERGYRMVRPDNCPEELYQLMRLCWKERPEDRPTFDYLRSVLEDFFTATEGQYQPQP

SMILES	IC50 (Lck)	IC50 (PDGFRB)	IC50 (Itk)	IC50 (IGFR-1)	IC50 (ErbB2)	IC50 (Zap-70)	IC50 (AKT)	IC50 (Kdr)	IC50 (EGFR)	IC50 (c-Met)
COc1cc(Nc2ncnc(Nc3cc(Cl)c(NC(=O)c4ccccc4)cc3C)n2)cc(OC)c1OC [Compound 633]	0.768 to 4.61 µM	4.61 to 6.72 µM	> 8.64 µM	> 8.64 µM	0.768 to 4.61 µM	> 8.64 µM	> 8.64 µM	6.72 to 8.64 µM	0.768 to 4.61 µM	> 8.64 µM
CCN(c1ncnc(Nc2cc(OC)c(OC)c(OC)c2)n1)c1cccc2ccccc12 [Compound 634]	0.927 to 5.56 µM	8.11 to 10.4 µM	> 10.4 µM	> 10.4 µM	0.927 to 5.56 µM	> 10.4 µM	8.11 to 10.4 µM	< 0.927 µM	< 0.927 µM	5.56 to 8.11 µM
Cc1ccc2c(c1)CCCN2c1ncnc(Nc2cccc(Cc3nnn[nH]3)c2)n1 [Compound 635]	6.01 to 8.76 µM	1 to 6.01 µM	> 11.3 µM	> 11.3 µM	< 1 µM	8.76 to 11.3 µM	> 11.3 µM	< 1 µM	< 1 µM	< 1 µM
COc1cc(Nc2ncnc(Nc3ccc(OCCO)cc3)n2)cc(OC)c1OC [Compound 636]	< 0.968 µM	< 0.968 µM	> 10.9 µM	> 10.9 µM	0.968 to 5.81 µM	> 10.9 µM	> 10.9 µM	< 0.968 µM	0.968 to 5.81 µM	> 10.9 µM
COc1cc(Nc2ncnc(N(CCO)c3ccccc3)n2)cc(OC)c1OC [Compound 637]	1.01 to 6.04 µM	6.04 to 8.81 µM	> 11.3 µM	> 11.3 µM	6.04 to 8.81 µM	> 11.3 µM	> 11.3 µM	1.01 to 6.04 µM	< 1.01 µM	6.04 to 8.81 µM
Cc1ccc(Cl)cc1Nc1ncnc(Nc2cc(Cl)ccc2C)n1 [Compound 638]	> 12.5 µM	1.11 to 6.66 µM	> 12.5 µM	9.72 to 12.5 µM	9.72 to 12.5 µM	> 12.5 µM	> 12.5 µM	9.72 to 12.5 µM	< 1.11 µM	> 12.5 µM

Continued, values first:

IC50 (Lck)	IC50 (PDGFRB)	IC50 (Itk)	IC50 (IGFR-1)	IC50 (ErbB2)	IC50 (Zap-70)	IC50 (AKT)	IC50 (Kdr)	IC50 (EGFR)	IC50 (c-Met)	SMILES
0.935 to 5.61 µM	< 0.935 µM	> 10.5 µM	> 10.5 µM	5.61 to 8.18 µM	> 10.5 µM	> 10.5 µM	< 0.935 µM	< 0.935 µM	< 0.935 µM	COc1cc(Nc2ncnc(N3CCCc4cc(Cl)ccc43)n2)cc(OC)c1OC [Compound 639]
> 10.5 µM	< 0.935 µM	> 10.5 µM	> 10.5 µM	0.935 to 5.61 µM	> 10.5 µM	> 10.5 µM	0.935 to 5.61 µM	< 0.935 µM	0.935 to 5.61 µM	COc1cc(Nc2ncnc(N3CCCc4c(Cl)cccc43)n2)cc(OC)c1OC [Compound 643]
> 11.7 µM	> 11.7 µM	> 11.7 µM	> 11.7 µM	–	> 11.7 µM	> 11.7 µM	> 11.7 µM	> 11.7 µM	> 11.7 µM	COc1ccc(Nc2ncnc(NCc3ccc(C)c(Cl)c3)n2)cc1OC [Compound 793]
< 0.872 µM	–	> 9.81 µM	> 9.81 µM	5.23 to 7.63 µM	> 9.81 µM	> 9.81 µM	< 0.872 µM	0.872 to 5.23 µM	> 9.81 µM	COc1cc(Nc2ncnc(-c3cccnc3N[C@@H](C)c3ccccc3)n2)cc(OC)c1OC [Compound 1111]
1.02 to 6.13 µM	–	8.94 to 11.5 µM	> 11.5 µM	1.02 to 6.13 µM	> 11.5 µM	> 11.5 µM	< 1.02 µM	1.02 to 6.13 µM	1.02 to 6.13 µM	CC(C)Nc1ncccc1-c1ncnc(Nc2ccc(N3CCOCC3)cc2)n1 [Compound 1112]
5.64 to 8.23 µM	–	> 10.6 µM	> 10.6 µM	0.94 to 5.64 µM	0.94 to 5.64 µM	> 10.6 µM	0.94 to 5.64 µM	0.94 to 5.64 µM	0.94 to 5.64 µM	c1ccc(Nc2ncccc2-c2ncnc(Nc3ccc(N4CCOCC4)cc3)n2)cc1 [Compound 1113]
